Patent US11814393B2, “Substituted guanidine compounds” (UBE CORPORATION, priority 2016, dated 2023)

Tests used:
Human VAP-1 enzyme = biological target: T1, Human VAP-1 enzyme (Homo sapiens, UniProt Q16853); experiment: Human VAP-1 enzyme inhibition test; assay type: biochemical; conditions: compound 30 nM; 14C-benzylamine 100 μM, 37° C., 1 hour; read-out: inhibition ratio
T1 construct: purchased R&D Systems, Inc
T1 sequence (Q16853 27-763 limits assumed): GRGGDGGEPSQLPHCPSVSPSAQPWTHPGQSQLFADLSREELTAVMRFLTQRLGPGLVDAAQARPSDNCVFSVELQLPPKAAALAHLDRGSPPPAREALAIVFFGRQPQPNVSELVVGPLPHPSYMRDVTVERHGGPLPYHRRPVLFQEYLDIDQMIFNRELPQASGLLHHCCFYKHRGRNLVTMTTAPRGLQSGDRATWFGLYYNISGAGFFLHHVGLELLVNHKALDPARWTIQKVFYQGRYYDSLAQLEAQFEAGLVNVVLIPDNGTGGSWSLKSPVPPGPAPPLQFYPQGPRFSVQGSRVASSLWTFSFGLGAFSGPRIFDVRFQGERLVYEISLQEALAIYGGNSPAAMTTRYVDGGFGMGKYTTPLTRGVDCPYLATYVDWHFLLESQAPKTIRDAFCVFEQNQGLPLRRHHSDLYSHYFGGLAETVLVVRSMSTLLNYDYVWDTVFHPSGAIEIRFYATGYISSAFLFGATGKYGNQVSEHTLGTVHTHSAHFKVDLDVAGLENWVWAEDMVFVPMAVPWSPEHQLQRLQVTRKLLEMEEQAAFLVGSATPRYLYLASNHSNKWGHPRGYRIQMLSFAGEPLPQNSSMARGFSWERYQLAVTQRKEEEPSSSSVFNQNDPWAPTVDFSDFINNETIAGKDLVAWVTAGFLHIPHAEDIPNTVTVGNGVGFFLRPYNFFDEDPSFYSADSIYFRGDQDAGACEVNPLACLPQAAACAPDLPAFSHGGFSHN
Description: Human VAP-1 Enzyme Inhibition Test
This test was conducted by modifying the method of P. H. Yu et al. (Diabetologia 40 1243 (1997)). Human VAP-1 enzyme (R&D Systems, Inc.) was pre-incubated in a 96-well plate with the compound dissolved in dimethylsulfoxide at room temperature for 20 minutes. Next, in a solution to the final volume of 200 μL, the enzyme reaction solution was incubated with ^14C-benzylamine (final concentration 100 μM) at 37° C. for 1 hour. The reaction was terminated by the addition of 100 μL of 2 M citric acid solution to the reaction solution. The oxidative product was extracted using a toluene/ethyl acetate mixture and the radioactivity was measured with a liquid scintillation counter. The inhibition ratio of the compound was calculated using the following equation. Inhibition ratio={1−[VAP-1 enzyme activity after treatment with the compound]/[VAP-1 enzyme activity in the presence of dimethylsulfoxide alone without the compound]}×100 [Math. 1]

rat plasma VAP-1 = biological target: T2, rat plasma VAP-1 (Rattus norvegicus, UniProt O08590); experiment: (Ex vivo) rat plasma VAP-1 inhibition test after oral administration of the compound; assay type: in vivo; conditions: 3 hours after oral administration, SD male rats, non-fasting, read-out: inhibition ratio (plasma VAP-1 activity)
T2 construct: The blood was centrifuged at 14000 rpm for 10 minutes to get plasma; from tissue; host or cells: plasma of SD male rats (ex vivo, after oral dosing)
T2 sequence (O08590 28-763 limits assumed): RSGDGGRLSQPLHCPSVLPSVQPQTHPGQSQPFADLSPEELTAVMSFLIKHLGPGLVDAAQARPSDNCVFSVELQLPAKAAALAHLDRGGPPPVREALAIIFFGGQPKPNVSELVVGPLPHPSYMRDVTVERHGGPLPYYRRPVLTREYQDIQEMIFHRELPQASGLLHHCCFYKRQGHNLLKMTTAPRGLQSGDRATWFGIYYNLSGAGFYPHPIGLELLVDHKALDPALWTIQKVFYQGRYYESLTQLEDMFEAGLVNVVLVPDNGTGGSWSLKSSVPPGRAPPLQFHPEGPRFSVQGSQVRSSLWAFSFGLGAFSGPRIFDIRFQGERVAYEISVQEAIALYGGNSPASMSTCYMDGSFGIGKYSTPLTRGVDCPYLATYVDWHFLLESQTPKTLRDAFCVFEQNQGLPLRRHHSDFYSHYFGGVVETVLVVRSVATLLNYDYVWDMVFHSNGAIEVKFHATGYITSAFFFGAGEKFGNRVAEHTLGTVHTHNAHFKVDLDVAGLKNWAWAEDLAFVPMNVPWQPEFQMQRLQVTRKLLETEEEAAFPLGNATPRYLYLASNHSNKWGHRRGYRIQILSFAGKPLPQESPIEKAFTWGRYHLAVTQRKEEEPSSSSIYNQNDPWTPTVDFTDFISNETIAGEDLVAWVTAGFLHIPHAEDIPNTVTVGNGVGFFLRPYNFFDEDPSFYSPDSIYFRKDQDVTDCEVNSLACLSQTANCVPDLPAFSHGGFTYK
Description: (Ex Vivo) Rat Plasma VAP-1 Inhibition Test after Oral Administration of the Compound
The compound was orally administered (0.3-10 mg/kg) to 7-12 week old SD male rats in the non-fasting state. Under anesthesia, the blood was collected in heparin tubes from the jugular vein before the administration and 3, 8 and 24 hours after the administration. The blood was centrifuged at 14000 rpm for 10 minutes to get plasma. The VAP-1 enzyme activity in the plasma was measured by radiochemical enzyme assay.
The radiochemical enzyme assay was conducted by modifying the method of P. H. Yu et al. (Diabetologia 40 1243 (1997)). ^14C-benzylamine (2.5 μM) was added to the obtained plasma, and was incubated at 37° C. for 3 hours. The reaction was terminated by the addition of 100 μL of 2 M citric acid solution to the reaction solution. The oxidative product was extracted using a toluene/ethyl acetate mixture and the radioactivity was measured with a liquid scintillation counter. The inhibition ratio of the compound was calculated using the following equation. Inhibition ratio={1−[Plasma VAP-1 activity after administration of the compound]/[Plasma VAP-1 activity before administration]}×100 [Math. 4]

[1] = Rat pharmacokinetic (PK) study (concentration of compound in plasma after oral administration); assay type: in vivo, SD rats; conditions: dose 3 mg/kg
Description: Rat Pharmacokinetic (PK) Study (Concentration of Compound in Plasma after Oral Administration)
Seven to eight week old SD rats (weighing 180 to 250 g) were orally administered with a suspension of the compound in 0.5 W/V % methylcellulose 400 solution. Under anesthesia, the blood was collected from the jugular vein in EDTA tubes at 0.25, 0.5, 1, 2, 4, 6, 8 and 24 hours after the administration of the compound. The blood was centrifuged at 4° C. and 6000 g for 3 minutes to give plasma. Acetonitrile was added to the plasma, and the mixture was stirred with a shaker at 750 rpm for 3 minutes and was deproteinized by centrifugation at 3700 rpm for 2 minutes. The obtained sample was analyzed by LC/MS under the following conditions.
The concentration of the compound in the plasma at each blood sampling time was determined by an internal standard method, and AUC all (Area Under Curve) was calculated by a trapezoidal method.
The following LC and MS systems were used for measurement.
LC: CBM 30 series manufactured by Shimadzu Corporation
Column: Phenomenex Kinetex C18 (50×2.1 mm, 2.6 μm)
Column temperature: 40° C.
Mobile phase A: 0.1% aqueous formic acid solution, mobile phase B: 0.1% formic acid, 50% acetonitrile/methanol mixture
MS: 3200 manufactured by SCIEX

Row | SMILES | inhibition at 0.03 µM (Human VAP-1 enzyme) [%] | inhibition in vivo at 0.3 mg/kg (rat plasma VAP-1) [%] | amount of metabolites found in the blood [1]
1 | CCOC1CN(c2ncc(-c3cccc(COC(=O)NC(=N)N)c3F)cc2F)C1 [Example 3, 3-[6-(3-Ethoxyazetidin-1-yl)-5-fluoropyridin-3-yl]-2-fluorobenzyl carbamimidoylcarbamate] | ≥ 50 | ≥ 50 | –
2 | N=C(N)NC(=O)OCc1cccc(-c2cnc(N3CC4(COC4)C3)c(F)c2)c1F [Example 16, 2-Fluoro-3-[5-fluoro-6-(2-oxa-6-azaspiro[3.3]heptan-6-yl)pyridin-3-yl]benzyl carbamimidoylcarbamate] | ≥ 50 | ≥ 50 | small
3 | N=C(N)NC(=O)OCc1cccc(-c2cnc(N3CC(OCCF)C3)c(F)c2)c1F [Example 4, 2-Fluoro-3-{5-fluoro-6-[3-(2-fluoroethoxy)azetidin-1-yl]pyridin-3-yl}benzyl carbamimidoylcarbamate] | ≥ 50 | ≥ 50 | –
4 | N=C(N)NC(=O)OCc1cccc(-c2cnc(N3CC(F)(F)C3)c(F)c2)c1F [Example 11, 3-[6-(3,3-Difluoroazetidin-1-yl)-5-fluoropyridin-3-yl]-2-fluorobenzyl carbamimidoylcarbamate] | ≥ 50 | ≥ 50 | –
5 | CC1(O)CN(c2ncc(-c3cccc(COC(=O)NC(=N)N)c3F)cc2F)C1 [Example 15, 2-Fluoro-3-[5-fluoro-6-(3-hydroxy-3-methylazetidin-1-yl)pyridin-3-yl]benzyl carbamimidoylcarbamate] | ≥ 50 | ≥ 50 | small
6 | CC1CN(c2ncc(-c3cccc(COC(=O)NC(=N)N)c3F)cc2F)C1 [Example 12, 2-Fluoro-3-[5-fluoro-6-(3-methylazetidin-1-yl)pyridin-3-yl]benzyl carbamimidoylcarbamate] | ≥ 50 | ≥ 50 | –
7 | N=C(N)NC(=O)OCc1cccc(-c2cnc(N3CC(O)C3)c(F)c2)c1F [Example 8, 2-Fluoro-3-[5-fluoro-6-(3-hydroxyazetidin-1-yl)pyridin-3-yl]benzyl carbamimidoylcarbamate] | ≥ 50 | ≥ 50 | small
8 | N=C(N)NC(=O)OCc1cccc(-c2cnc(N3CCC3)c(F)c2)c1F [Example 9, 3-[6-(Azetidin-1-yl)-5-fluoropyridin-3-yl]-2-fluorobenzyl carbamimidoylcarbamate] | ≥ 50 | ≥ 50 | –
9 | [2H]C([2H])([2H])OC1CN(c2ncc(-c3cccc(COC(=O)NC(=N)N)c3F)cc2F)C1 [Example 2, 2-Fluoro-3-{5-fluoro-6-[3-(methoxy-d3)azetidin-1-yl]pyridin-3-yl}benzyl carbamimidoylcarbamate] | ≥ 50 | ≥ 50 | –
10 | CC(C)OC1CN(c2ncc(-c3cccc(COC(=O)NC(=N)N)c3F)cc2F)C1 [Example 6, 2-Fluoro-3-[5-fluoro-6-(3-isopropoxyazetidin-1-yl)pyridin-3-yl]benzyl carbamimidoylcarbamate] | ≥ 50 | ≥ 50 | –
11 | COC1CN(c2ncc(-c3cccc(COC(=O)NC(=N)N)c3F)cc2F)C1 [Example 1, 2-Fluoro-3-[5-fluoro-6-(3-methoxyazetidin-1-yl)pyridin-3-yl]benzyl carbamimidoylcarbamate] | ≥ 50 | ≥ 50 | –
12 | CC1(C)CN(c2ncc(-c3cccc(COC(=O)NC(=N)N)c3F)cc2F)C1 [Example 13, 3-[6-(3,3-Dimethylazetidin-1-yl)-5-fluoropyridin-3-yl]-2-fluorobenzyl carbamimidoylcarbamate] | ≥ 50 | ≥ 50 | –
13 | N=C(N)NC(=O)OCc1cccc(-c2cnc(N3CC(F)C3)c(F)c2)c1F [Example 10, 2-Fluoro-3-[5-fluoro-6-(3-fluoroazetidin-1-yl)pyridin-3-yl]benzyl carbamimidoylcarbamate] | ≥ 50 | ≥ 50 | –
